Results published in US10104893B2, “Pesticidally active polycyclic derivatives with sulfur substituted five membered ring heterocyles” (Syngenta Participations AG, priority 2015, dated 2018).
Read-outs that look alike come from different tables or passages of the source.

Legend:
[1] = tested on: Plutella xylostella (Diamond Back Moth); assay: Insecticidal action against Plutella xylostella; type: in vivo; conditions: 120 h, read-out: effect in at least one of the two categories (mortality or growth inhibition); for percent effect (mortality or growth inhibition) at 200 ppm: application rate of 200 ppm, artificial diet, L2 larvae, 5 days after infestation
Method: Example B7: Insecticidal Action Against Plutella xylostella (Diamond Back Moth)
(§1) 24-well microtiter plates with artificial diet were treated with aqueous test solutions prepared from 10′000 ppm DMSO stock solutions by pipetting. After drying, the plates were infested with L2 larvae (10 to 15 per well). The samples were assessed for mortality and growth inhibition in comparison to untreated samples 5 days after infestation.

[2] = tested on: Diabrotica balteata (Corn Root Worm); assay: Insecticidal action against Diabrotica balteata; type: in vivo; conditions: 96 h, read-out: effect in at least one of the two categories (mortality or growth inhibition); for percent effect (mortality or growth inhibition) at 200 ppm: application rate of 200 ppm, maize sprouts, L2 larvae, 4 days after infestation
Method: Example B2: Insecticidal Action Against Diabrotica balteata (Corn Root Worm)
as §1, with “Maize sprouts placed onto an agar layer in 24-well” for “24-well”, “plates” for “plates with artificial diet”, “spraying.” for “pipetting.”, “(6” for “(10”, “10” for “15”, “4” for “5”

[3] = tested on: Myzus persicae (Green Peach Aphid); assay: Insecticidal action against Myzus persicae: feeding/contact activity; type: in vivo; conditions: foliar, 144 h
Method: Example B4: Insecticidal Action Against Myzus persicae (Green Peach Aphid): Feeding/Contact Activity
Sunflower leaf discs were placed onto agar in a 24-well microtiter plate and sprayed with aqueous test solutions prepared from 10′000 ppm DMSO stock solutions. After drying, the leaf discs were infested with an aphid population of mixed ages. The samples were assessed for mortality 6 days after infestation.

[4] = tested on: Spodoptera littoralis (Egyptian Cotton Leaf Worm); assay: Insecticidal action against Spodoptera littoralis, sprayed cotton leaf discs; type: in vivo; conditions: foliar, 72 h, read-out: control (mortality, anti-feeding effect, growth inhibition)
Method: Example B8: Insecticidal Action Against Spodoptera littoralis (Egyptian Cotton Leaf Worm)
Cotton leaf discs were placed onto agar in 24-well microtiter plates and sprayed with aqueous test solutions prepared from 10′000 ppm DMSO stock solutions. After drying the leaf discs were infested with five L1 larvae. The samples were assessed for mortality, anti-feeding effect, and growth inhibition in comparison to untreated samples 3 days after infestation. Control of Spodoptera littoralis by a test sample is given when at least one of the categories mortality, anti-feeding effect, and growth inhibition is higher than the untreated sample.

[5] = tested on: Euschistus heros (Neotropical Brown Stink Bug); assay: Insecticidal action against Euschistus heros; type: in vivo; conditions: 120 h, read-out: effect in at least one of the two categories (mortality or growth inhibition); for percent effect (mortality or growth inhibition) at 200 ppm: application rate of 200 ppm, soybean leaves, N2 nymphs, 5 days after infestation
Method: Example B3: Insecticidal Action Against Euschistus heros (Neotropical Brown Stink Bug)
Soybean leaves on agar in 24-well microtiter plates were sprayed with aqueous test solutions prepared from 10′000 ppm DMSO stock solutions. After drying the leaves were infested with N2 nymphs. The samples were assessed for mortality and growth inhibition in comparison to untreated samples 5 days after infestation.

[6] = application rate of 200 ppm, cotton leaf discs, L1 larvae, 3 days after infestation

| SMILES | melting point [°C] | percent effect (mortality or growth inhibition) at 200 ppm [1] [%] | percent effect (mortality or growth inhibition) at 200 ppm [2] [%] | mortality at 200 ppm [4, 6] [%] | percent effect (mortality or growth inhibition) at 200 ppm [5] [%] | further results |
| --- | --- | --- | --- | --- | --- | --- |
| CCn1c(C(F)(F)F)cc2nc(-c3sc(-c4cccc(F)c4)cc3S(=O)(=O)CC)n(C)c2c1=O | 194 to 195 |  |  |  |  |  |
| CCn1c(C(F)(F)F)cc2nc(-c3sc(-c4cc(F)cc(F)c4)cc3S(=O)(=O)CC)n(C)c2c1=O | 180 to 182 |  |  |  |  |  |
| CCSc1cc(-c2ccc(Cl)cc2)sc1-c1nc2cc(C(F)(F)F)n(CC)c(=O)c2n1C [A1, 2-[5-(4-chlorophenyl)-3-ethylsulfanyl-2-thienyl]-5-ethyl-3-methyl-6-(trifluoromethyl)-3aH-imidazo[4,5-c]pyridin-4-one] |  | ≥ 80 | ≥ 80 |  |  |  |
| CCn1c(C(F)(F)F)cc2nc(-c3sc(-c4ccc(Cl)cc4)cc3S(=O)(=O)CC)n(C)c2c1=O [A2, 2-[5-(4-chlorophenyl)-3-ethylsulfonyl-2-thienyl]-5-ethyl-3-methyl-6-(trifluoromethyl)-3aH-imidazo[4,5-c]pyridin-4-one] |  |  |  |  |  | mortality at 200 ppm [3]: ≥ 80%; percent control (mortality or growth inhibition) at 200 ppm [1]: ≥ 80%; percent control (mortality or growth inhibition) at 200 ppm [2]: ≥ 80%; mortality at 200 ppm [4]: ≥ 80%; percent control (mortality or growth inhibition) at 200 ppm ([5]; in Glycine max): ≥ 80% |
| CCS(=O)(=O)c1cc(I)sc1-c1nc2cc(C(F)(F)F)n(C)c(=O)c2n1C [A44, 2-(3-ethylsulfonyl-5-iodo-2-thienyl)-3,5-dimethyl-6-(trifluoromethyl)imidazo[4,5-c]pyridin-4-one] |  | ≥ 80 | ≥ 80 | ≥ 80 | ≥ 80 |  |
| CCS(=O)(=O)c1sc(-c2ccc(Cl)cc2)nc1-c1nc2cc(C(F)(F)F)n(C)c(=O)c2n1C [A48, 2-[2-(4-chlorophenyl)-5-ethylsulfonyl-thiazol-4-yl]-3,5-dimethyl-6-(trifluoromethyl)imidazo[4,5-c]pyridin-4-one] |  | ≥ 80 | ≥ 80 | ≥ 80 | ≥ 80 |  |
